Assay results as given in BindingDB's records for doi:10.1016/j.bmc.2010.10.023 (Chugai Pharmaceutical, 2010).

experiment: Antagonist activity at AR in human bicalutamide-resistant LNCAP cells assessed as inhibition of cell proliferation after 6 days

With `CC1(C)C(=O)N(c2ccc(C#N)c(C(F)(F)F)c2)C(=S)N1c1ccnc(S(N)(=O)=O)c1` [4-[3-(4-Cyano-3-trifluoromethylphenyl)-5,5-dimethyl-4-oxo-2-thioxoimidazolidin-1-yl]pyridine-2-sulfonic acid amide] as the compound, how does the IC50 read?
Its IC50 is 0.08 µM.

For `CC1(C)C(=O)N(c2ccc(C#N)c(C(F)(F)F)c2)C(=S)N1c1cncc(S(N)(=O)=O)c1` [5-[3-(4-Cyano-3-trifluoromethylphenyl)-5,5-dimethyl-4-oxo-2-thioxoimidazolidin-1-yl]pyridine-3-sulfonic acid amide], which IC50 is on record?
Its IC50 is 0.03 µM.

With `CC1(C)C(=O)N(c2ccc(C#N)c(C(F)(F)F)c2)C(=S)N1c1cccc(S(N)(=O)=O)n1` [6-[3-(4-Cyano-3-trifluoromethylphenyl)-5,5-dimethyl-4-oxo-2-thioxoimidazolidin-1-yl]pyridine-2-sulfonic acid amide] as the compound, how does the IC50 read?
Its IC50 is 0.1 µM.

Which IC50 does the source give for `CC1(C)C(=O)N(c2ccc(C#N)c(C(F)(F)F)c2)C(=S)N1c1cccc(S(N)(=O)=O)c1` [3-[3-(4-Cyano-3-trifluoromethylphenyl)-5,5-dimethyl-4-oxo-2-thioxoimidazolidin-1-yl]benzenesulfonamide] here?
Its IC50 is 0.1 µM.

With `CC1(C)C(=O)N(c2ccc(C#N)c(Cl)c2)C(=S)N1c1cccc(S(N)(=O)=O)c1` [3-[3-(3-Chloro-4-cyanophenyl)-5,5-dimethyl-4-oxo-2-thioxoimidazolidin-1-yl]benzenesulfonamide] as the compound, how does the IC50 read?
Its IC50 is 0.1 µM.

With `CC1(C)C(=O)N(c2ccc(C#N)c(Cl)c2)C(=S)N1c1cccc(S(N)(=O)=O)n1` [6-[3-(3-Chloro-4-cyanophenyl)-5,5-dimethyl-4-oxo-2-thioxoimidazolidin-1-yl]pyridine-2-sulfonic acid amide] as the compound, how does the IC50 read?
Its IC50 is 0.1 µM.

For `CC1(C)C(=O)N(c2ccc(C#N)c(Cl)c2)C(=S)N1c1cncc(S(N)(=O)=O)c1` [5-[3-(3-Chloro-4-cyanophenyl)-5,5-dimethyl-4-oxo-2-thioxoimidazolidin-1-yl]pyridine-3-sulfonic acid amide], which IC50 is on record?
Its IC50 is 0.05 µM.

Which IC50 does the source give for `CC1(C)C(=O)N(c2ccc(C#N)c(C(F)(F)F)c2)C(=S)N1c1ccccc1` [4-(3-Phenyl-4,4-dimethyl-5-oxo-2-thioxoimidazolidin-1-yl)-2-trifluoromethylbenzonitrile] here?
Its IC50 is 0.1 µM.

Which IC50 does the source give for `CC1(C)C(=O)N(c2ccc(C#N)c(Cl)c2)C(=S)N1CCCS(N)(=O)=O` [3-[3-(3-Chloro-4-cyanophenyl)-5,5-dimethyl-4-oxo-2-thioxoimidazolidin-1-yl]propane-1-sulfonamide] here?
Its IC50 is 0.01 µM.
